Laboratory results published in patent US11485745B2, “Amido spirocyclic amide and sulfonamide derivatives” (Valo Health, Inc., priority 2012, dated 2022).

system: A2780 cells; experiment: In-Vitro Cell Proliferation Assay (A2780, sulforhodamine B, 72 hours); assay type: cell-based; details: Homo sapiens, A2780, 72 h, SRB

IC50 [nM]	Compound
17.5	O=C(NCC1CC12CCN(C(=O)c1cc(C(F)(F)F)[nH]n1)CC2)N1Cc2ccncc2C1 (stereo not drawn) [Example 396, N-[[6-[5-(trifluoromethyl)-1H-pyrazole-3-carbonyl]-6-azaspiro[2.5]octan-2-yl]methyl]-1,3-dihydropyrrolo[3,4-c]pyridine-2-carboxamdie]
9.61	O=C(CCC1CCCCC1)N1CCC2(CC1)CC2CNC(=O)N1Cc2ccncc2C1 (stereo not drawn) [Example 197, N-[[6-(3-cyclohexylpropanoyl)-6-azaspiro[2.5]octan-2-yl]methyl]-1,3-dihydropyrrolo[3,4-c]pyridine-2-carboxamide]
2000	CC(C)C(=O)N1CCC2(CC1)CC2CNC(=O)c1cc2cnccc2[nH]1 (stereo not drawn) [Example 12]
203	O=C(CCc1cccnc1)N1CCC2(CC1)CC2CNC(=O)N1Cc2ccncc2C1 (stereo not drawn) [Example 209, N-[[6-[3-(3-pyridyl)propanoyl]-6-azaspiro[2.5]octan-2-yl]methyl]-1,3-dihydropyrrolo[3,4-c]pyridine-2-carboxamide]
18.5	CC(C)(O)COCC(=O)N1CCC2(CC1)CC2CNC(=O)N1Cc2ccncc2C1 (stereo not drawn) [Example 393, N-[[6-[2-(2-hydroxy-2-methyl-propoxy)acetyl]-6-azaspiro[2.5]octan-2-yl]methyl]-1,3-dihydropyrrolo[3,4-c]pyridine-2-carboxamide]
2000	CCS(=O)(=O)N1CCC2(CC1)CC2CNC(=O)c1cc2cnccc2[nH]1 (stereo not drawn) [Example 14, N-[(8-ethylsulfonyl-8-azasprio[2.5]octan-2-yl)methyl]-1H-pyrrolo[3,2-c]pyridine-2-carboxamide]
2000	CC(C)(C)CS(=O)(=O)N1CCC2(CC1)CC2CNC(=O)c1cc2ccncc2[nH]1 (stereo not drawn) [Example 379, N-[[6-(2,2-dimethylpropylsulfonyl)-6-azaspiro[2.5]octan-2-yl]methyl]-1H-pyrrolo[3,2-c]pyridine-2-caarboxamide]
2000	CC(C)(O)COC(=O)N1CCC2(CC1)CC2CNC(=O)c1cc2cnccc2[nH]1 (stereo not drawn) [Example 401, (2-hydroxy-2-methyl-propyl) 2-[(1H-pyrrolo[3,2-c]pyridine-2-carbonylamino)methyl]-6-azaspiro[2.5]octane-6-carboxylate]
2000	CCC(=O)N1CCC2(CC1)CC2CNC(=O)c1cc2cnccc2[nH]1 (stereo not drawn) [Example 20]
1.59	CC1(C)CC1C(=O)N1CCC2(CC1)CC2CNC(=O)N1Cc2ccncc2C1 (stereo not drawn) [Example 377, N-[[6-(2,2-dimethylcyclopropanecarbonyl)-6-azaspiro[2.5]octan-2-yl]methyl]-1,3-dihydropyrrolo[3,4-c]pyridine-2-carboxamide]
55.4	CC(C)(C)CS(=O)(=O)N1CCC2(CC1)CC2CNC(=O)N1Cc2ccncc2C1 (stereo not drawn) [Example 381, N-[[6-(2,2-dimethylpropylsulfonyl)-6-azaspiro[2.5]octan-2-yl]methyl]-1,3-dihydropyrrolo[3,4-c]pyridine-2-carboxamide]
184	O=C(CCc1ccccc1)N1CCC2(CC1)CC2CNC(=O)N1Cc2ccncc2C1 (stereo not drawn) [Example 199, N-[[6-(3-phenylpropanoyl)-6-azaspiro[2.5]octan-2-yl]methyl]-1,3-dihydropyrrolo[3,4-c]pyridine-2-carboxamide]
50.9	CC(C)(O)CCC(=O)N1CCC2(CC1)CC2CNC(=O)N1Cc2ccncc2C1 (stereo not drawn) [Example 360, N-[[6-(4-hydroxy-4-methyl-pentanoyl)-6-azaspiro[2.5]octan-2-yl]methyl]-1,3-dihydropyrrolo[3,4-c]pyridine-2-carboxamide]
13.7	CN(C)Cc1ccc(C(=O)N2CCC3(CC2)CC3CNC(=O)c2cc3ccncc3o2)cc1 (stereo not drawn) [Example 71, N-[[6-[4-[(dimethylamino)methyl]benzoyl]-6-azaspiro[2.5]octan-2-yl]methyl]furo[2,3-c]pyridine-2-carboxamide]

same assay, conditions: SRB

IC50 [nM]	Compound
7.03	CC1(C)CC1C(=O)N1CCC2(CC1)CC2CNC(=O)c1cc2ccncc2o1 (stereo not drawn) [Example 373, N-[[6-(2,2-dimethylcyclopropanecarbonyl)-6-azaspiro[2.5]octan-2-yl]methyl]furo[2,3-c]pyridine-2-carboxamide]
